From patent US20230339886A1 (University of Florida Research Foundation, Incorporated, priority 2020, published 2023)

What was measured:
[1] = biological target: T1, REV-ERBα LBD (human; residues 281-614 Δ324-422) (Homo sapiens, UniProt P20393, DEL324-422); assay: TR-FRET corepressor interaction assay (REV-ERBα LBD, FITC-SMRT peptide); format: biochemical; conditions: Table 2, read-out: REVERBα agonism (EC50 class, FRET assay)
T1 construct: 6×Histag-REV-ERBα LBD (human; residues 281-614 Δ324-422); made in house; host or cells: Escherichia coli
In short: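 Compound serial dilutions (in DMSO, triplicate) incubated 2 h at 4 °C; Tb donor excited at 340 nm, emission read at 495 nm and FITC acceptor at 520 nm. TR-FRET ratio (520/495 nm) plotted against ligand concentration and fitted to a sigmoidal dose-response curve.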

REV-ERBβ = biological target: T2, REV-ERBβ (Homo sapiens, UniProt Q14995); assay: TR-FRET corepressor interaction assay (REV-ERBβ, FITC-SMRT peptide); format: biochemical; conditions: Table 2, read-out: REVERBβ agonism (EC50 class, FRET assay)
T2 construct: 6×Histag-REV-ERBα LBD (human; residues 381-579); made in house; host or cells: Escherichia coli
T2 sequence (Q14995 381-579): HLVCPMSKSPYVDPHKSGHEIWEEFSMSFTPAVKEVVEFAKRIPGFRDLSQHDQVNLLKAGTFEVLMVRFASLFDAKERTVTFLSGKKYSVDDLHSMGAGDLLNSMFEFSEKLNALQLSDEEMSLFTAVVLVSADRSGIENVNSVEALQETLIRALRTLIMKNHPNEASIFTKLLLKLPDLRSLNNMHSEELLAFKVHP
Method: TR-FRET corepressor interaction assay. The time-resolved fluorescence resonance energy transfer (TR-FRET) assay was performed in black low-volume 384-well plates (Greiner). […] Ligand stocks were prepared via serial dilution in DMSO, added to wells in triplicate, and plates were incubated at 4° C. for 2 h and read using a BioTek Synergy Neo multimode plate reader. The Tb donor was excited at 340 nm; its fluorescence emission was monitored at 495 nm, and the acceptor FITC emission was measured at 520 nm; and the TR-FRET ratio was calculated as the signal at 520 nm divided by the signal at 495 nm. Data were plotted using GraphPad Prism as TR-FRET ratio vs. ligand concentration and fit to sigmoidal dose response curve equation.
Exemplary compounds of the present disclosure were assayed as described above to assess agonism of REV-ERBα and REV-ERBβ.

T1 sequence (P20393 with tags, fused parts or gaps DEL324-422): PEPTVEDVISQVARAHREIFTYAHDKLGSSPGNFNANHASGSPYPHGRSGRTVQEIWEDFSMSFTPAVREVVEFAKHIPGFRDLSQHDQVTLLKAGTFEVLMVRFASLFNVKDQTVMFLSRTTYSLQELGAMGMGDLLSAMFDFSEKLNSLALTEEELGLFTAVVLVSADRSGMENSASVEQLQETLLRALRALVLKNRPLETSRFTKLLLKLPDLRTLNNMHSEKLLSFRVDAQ
T1 sequence (Q9Y618 2335-2356 partner limits assumed): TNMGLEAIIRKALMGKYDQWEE

SMILES	EC50 [1]	EC50 (REV-ERBβ)
CC(C)Cn1cc(CCNS(=O)(=O)C2CCCC2)c2ccc(-c3ccncc3)cc21 [Compound 11]	< 0.5 µM	> 3 µM
CC(C)Cn1cc(CCNS(=O)(=O)CC(C)C)c2ccc(-c3ccncc3)cc21 [Compound 12]	< 0.5 µM	> 3 µM
CC(C)Cn1cc(CCNS(=O)(=O)C2CC2)c2ccc(-c3ccncc3)cc21 [Compound 13]	< 0.5 µM	> 3 µM
Cc1noc(C)c1S(=O)(=O)NCCc1cn(CC(C)C)c2cc(-c3ccncc3)ccc12 [Compound 14]	> 3 µM	> 3 µM
CC(C)Cn1cc(CCNS(=O)(=O)c2cccnc2)c2ccc(-c3ccncc3)cc21 [Compound 15]	0.5 to 3 µM	> 3 µM
CC(C)Cn1cc(CCNS(=O)(=O)N(C)C)c2ccc(C3CCCCC3)cc21 [Compound 16]	< 0.5 µM	0.5 to 3 µM
CC(C)Cn1cc(CCNS(=O)(=O)N(C)C)c2ccc(-c3ccnc(C(F)(F)F)c3)cc21 [Compound 17]	0.5 to 3 µM	> 3 µM
CC(C)Cn1cc(CCNS(=O)(=O)N(C)C)c2ccc(-c3cc[nH]c(=O)c3)cc21 [Compound 18]	> 3 µM	> 3 µM
CC(C)Cn1cc(CCNS(=O)(=O)N(C)C)c2ccc(-c3ccnc(Cl)c3)cc21 [Compound 20]	< 0.5 µM	> 3 µM
CC(C)Cn1cc(CCNS(=O)(=O)N(C)C)c2ccc(-c3ccnc(N)c3)cc21 [Compound 21]	0.5 to 3 µM	> 3 µM
CC(C)Cn1cc(CCNS(=O)(=O)N(C)C)c2ccc(-c3cccnc3)cc21 [Compound 28, dimethyl({2-[1-(2-methylpropyl)-6-(pyridin-3-yl)-1H-indol-3-yl]ethyl}sulfamoyl)amine]	< 0.5 µM	> 3 µM
CC(C)Cn1cc(CCNS(=O)(=O)N(C)C)c2ccc(-c3cncnc3)cc21 [Compound 29, dimethyl({2-[1-(2-methylpropyl)-6-(pyrimidin-5-yl)-1H-indol-3-yl]ethyl}sulfamoyl)amine]	0.5 to 3 µM	> 3 µM
CC(C)Cn1cc(CCNS(=O)(=O)N(C)C)c2ccc(-c3ccccc3)cc21 [Compound 30, dimethyl({2-[1-(2-methylpropyl)-6-phenyl-1H-indol-3-yl]ethyl}sulfamoyl)amine]	–	0.5 to 3 µM
CC(C)Cn1cc(CCNS(=O)(=O)N(C)C)c2ccc(-c3ccccn3)cc21 [Compound 31, dimethyl({2-[1-(2-methylpropyl)-6-(pyridin-2-yl)-1H-indol-3-yl]ethyl}sulfamoyl)amine]	0.5 to 3 µM	> 3 µM
CC(C)Cn1cc(CCNS(=O)(=O)N(C)C)c2ccc(-c3ncccn3)cc21 [Compound 32, dimethyl({2-[1-(2-methylpropyl)-6-(pyrimidin-2-yl)-1H-indol-3-yl]ethyl}sulfamoyl)amine]	0.5 to 3 µM	> 3 µM
CC(C)Cn1cc(CCNS(=O)(=O)N(C)C)c2ccc(-c3cnn(C)c3)cc21 [Compound 33, dimethyl({2-[6-(1-methyl-1H-pyrazol-4-yl)-1-(2-methylpropyl)-1H-indol-3-yl]ethyl}sulfamoyl)amine]	> 3 µM	> 3 µM
CC(C)Cn1cc(CCNS(=O)(=O)N(C)C)c2ccc(-c3ccnn3C)cc21 [Compound 34, dimethyl({2-[6-(1-methyl-1H-pyrazol-5-yl)-1-(2-methylpropyl)-1H-indol-3-yl]ethyl}sulfamoyl)amine]	< 0.5 µM	> 3 µM
CC(C)Cn1cc(CCNS(=O)(=O)N(C)C)c2ccc(-c3cn[nH]c3)cc21 [Compound 35, dimethyl({2-[1-(2-methylpropyl)-6-(1H-pyrazol-4-yl)-1H-indol-3-yl]ethyl}sulfamoyl)amine]	< 0.5 µM	> 3 µM
CC(C)Cn1cc(CCNS(=O)(=O)N(C)C)c2ccc(-c3ccnc(N4CCOCC4)c3)cc21 [Compound 36, dimethyl({2-[1-(2-methylpropyl)-6-[2-(morpholin-4-yl)pyridin-4-yl]-1H-indol-3-yl]ethyl}sulfamoyl)amine]	> 3 µM	> 3 µM
CC(C)Cn1cc(CCNS(=O)(=O)N(C)C)c2ccc(-c3ccnc4ccccc34)cc21 [Compound 37, dimethyl({2-[1-(2-methylpropyl)-6-(quinolin-4-yl)-1H-indol-3-yl]ethyl}sulfamoyl)amine]	< 0.5 µM	0.5 to 3 µM

SMILES	EC50 [1]	EC50 (REV-ERBβ)
CC(C)Cn1cc(CCNS(=O)(=O)N(C)C)c2ccc(-c3cccc4cnccc34)cc21 [Compound 38, ({2-[6-(isoquinolin-5-yl)-1-(2-methylpropyl)-1H-indol-3-yl]ethyl}sulfamoyl)dimethylamine]	> 3 µM	> 3 µM
CC(C)Cn1cc(CCNS(=O)(=O)N(C)C)c2ccc(-c3cccc4ccccc34)cc21 [Compound 39, dimethyl({2-[1-(2-methylpropyl)-6-(naphthalen-1-yl)-1H-indol-3-yl]ethyl}sulfamoyl)amine]	< 0.5 µM	> 3 µM
CC(C)Cn1cc(CCNS(=O)(=O)N(C)C)c2ccccc21 [Compound 68, dimethyl({2-[1-(2-methylpropyl)-1H-indol-3-yl]ethyl}sulfamoyl)amine]	0.5 to 3 µM	> 3 µM
CC(C)Cn1cc(CCNS(=O)(=O)N(C)C)c2ccc(C(C)C)cc21 [Compound 91, dimethyl({2-[1-(2-methylpropyl)-6-(propan-2-yl)-1H-indol-3-yl]ethyl}sulfamoyl)amine]	< 0.5 µM	0.5 to 3 µM
CCCc1ccc2c(CCNS(=O)(=O)N(C)C)cn(CC(C)C)c2c1 [Compound 98, dimethyl({2-[1-(2-methylpropyl)-6-propyl-1H-indol-3-yl]ethyl}sulfamoyl)amine]	< 0.5 µM	> 3 µM
CC(C)Cn1cc(CCNS(=O)(=O)N(C)C)c2ccc(C3CCCC3)cc21 [Compound 99, ({2-[6-cyclopentyl-1-(2-methylpropyl)-1H-indol-3-yl]ethyl}sulfamoyl)dimethylamine]	< 0.5 µM	0.5 to 3 µM
CCc1ccc2c(CCNS(=O)(=O)N(C)C)cn(CC(C)C)c2c1 [Compound 100, ({2-[6-ethyl-1-(2-methylpropyl)-1H-indol-3-yl]ethyl}sulfamoyl)dimethylamine]	< 0.5 µM	> 3 µM
CCC(C)n1cc(CCNS(=O)(=O)N(C)C)c2ccc(-c3ccncc3)cc21 (stereo not drawn) [Compound 230]	< 0.5 µM	0.5 to 3 µM
CC(C)CCn1cc(CCNS(=O)(=O)N(C)C)c2ccc(-c3ccncc3)cc21 [Compound 231]	< 0.5 µM	0.5 to 3 µM
CC(C)Cn1cc(CCNS(=O)(=O)C(C)C)c2cc(F)c(-c3ccccc3Cl)cc21 [Compound 262]	< 0.5 µM	> 3 µM
CC(C)Cn1cc(CCNS(=O)(=O)C(C)C)c2cc(F)c(-c3ccncc3Cl)cc21 [Compound 263]	< 0.5 µM	> 3 µM
CC(C)Cn1cc(CNS(=O)(=O)C(C)C)c2cc(F)c(-c3ccncc3)cc21 [Compound 265]	< 0.5 µM	> 3 µM
CC(C)(C)Cn1cc(CNS(=O)(=O)C2CC2)c2cc(F)c(-c3ccccc3C(F)(F)F)cc21 [Compound 278]	< 0.5 µM	0.5 to 3 µM
CC(C)(C)Cn1cc(CNS(=O)(=O)C2CC2)c2cc(F)c(-c3ccncc3Cl)cc21 [Compound 279]	< 0.5 µM	> 3 µM
O=S(=O)(NCc1cn(CC2(C(F)(F)F)CC2)c2cc(-c3ccncc3Cl)c(F)cc12)C1CC1 [Compound 286]	< 0.5 µM	> 3 µM
CC(C)Cc1cn(CCNS(=O)(=O)N(C)C)c2ccc(-c3ccncc3)cc12 [Example 23, dimethyl({2-[3-(2-methylpropyl)-5-(pyridin-4-yl)-1H-indol-1-yl]ethyl}sulfamoyl)amine]	–	0.5 to 3 µM
COc1ccccc1-c1ccc2c(CCNS(=O)(=O)N(C)C)cn(CC(C)C)c2c1 [Example 58, N-{2-[6-(2-methoxylphenyl)-1-(2-methylpropyl)-1H-indol-3-yl]ethyl}-N,N-dimethylsulfuric diamide]	–	> 3 µM
CC(C)Cn1cc(CCNS(=O)(=O)N(C)C)c2ccc(-c3ccccc3Cl)cc21 [Example 78, N-{2-[6-(2-chlorophenyl)-1-(2-methylpropyl)-1H-indol-3-yl]ethyl}-N,N-dimethylsulfuric diamide]	–	> 3 µM
CC(C)Cn1cc(CCNS(=O)(=O)N(C)C)c2ccc(-c3c(Cl)cccc3Cl)cc21 [Example 80, N-{2-[6-(2,6-dichlorophenyl)-1-(2-methylpropyl)-1H-indol-3-yl]ethyl}-N,N-dimethyl-sulfuric diamide]	< 0.5 µM	> 3 µM
CC(C)Cn1cc(CCNS(=O)(=O)N(C)C)c2ccc(C3CC3)cc21 [Example 82, N-{2-[6-cyclopropyl-1-(2-methylpropyl)-1H-indol-3-yl]ethyl}-N,N-dimethylsulfuric diamide]	–	> 3 µM
